The test system of this assay is Wistar male rats. As to the kind of experiment: Effect of GPR7 ligand on feed uptake in rat by lateral ventricular injection. It is filed as in vivo. To be noted: 10 nmols/rat into the lateral ventricle; from 2 hours after the administration; compared to the control group (distilled water). How it is done: The effect of GPR7 ligand (GPR7L) on feed uptake in rat by lateral ventricular injection was examined. Rat was caged at room temperature of 25° C. while lighting for 8 to 20 o'clock. Mature Wistar male rats (300-320 g body weight upon surgery) were anesthetized with an intraperitoneal injection of 50 mg/kg pentobarbital and placed in a rat brain stereotaxic instrument. The level of incisor bar was 3.3 mm below the interaural line. The skull was exposed, and using a dental drill a hole was made on the bone for implantation of guide cannula AG-8 (inner diameter of 0.4 mm, outer diameter of 0.5 mm, EICOM Corporation). In addition, an anchor screw was buried at 3 positions around the hole. A stainless-steel guide cannula, AG-8, was inserted in such a manner that the tip was situated at the upper part of the lateral ventricle. Stereotaxic coordinates were taken from the atlas according to the atlas of Paxinos & Watson (1986) from bregma AP: −0.8 mm, L:1.5 mm and H:−4.5 mm. The guide cannula was secured to the skull using a dental cement and an anchor screw. […]
After the guide cannula was implanted, rats were caged for about a week to recover from surgical operation. […] The infusion was continued from 19:00 to 20:00 o'clock, and the feed uptake thereafter was measured with passage of time, using a feed uptake measuring device Feed-Scale (Columbus, Inc.).

No end group written: not given here.

Consider “WYKPTAGQGYYSVGRAAGLLSGFHRSPYA [Trp1-bovine GPR7L(29)]”, for which the feed uptake result is reported as “significant increase in feed uptake”.

The values are drawn from patent US7268212B2, “Ligand of G protein-coupled receptor protein and DNA thereof” (Takeda Pharmaceutical Company Limited, priority 2001, dated 2007).
